Reference: ChEMBL document CHEMBL3885881, “DrugMatrix”

Species: Rattus norvegicus
Assay: DrugMatrix - Regimen: Daily Repeat
Type: toxicity, organism-based, Sprague-Dawley
Design: regimen Daily Repeat, gender Male, age 6-8 weeks
Details: in vivo, po, 10 mg/kg, route oral GAVAGE, dose level Low, […]; for ABSOLUTE BASOPHIL / ABSOLUTE EOSINOPHIL / ABSOLUTE LYMPHOCYTE / ABSOLUTE MONOCYTE / ABSOLUTE SEGMENTED NEUTROPHIL / BASOPHIL / EOSINOPHIL / HEMATOCRIT / HEMOGLOBIN / LEUKOCYTE COUNT / LYMPHOCYTE / MEAN CORPUSCULAR HEMOGLOBIN / MEAN CORPUSCULAR HEMOGLOBIN CONCENTRATION / MEAN CORPUSCULAR VOLUME / MONOCYTE / NEUTROPHIL / NUCLEATED RED BLOOD CELLS / PLATELET COUNT: tissue Blood; for ALANINE AMINOTRANSFERASE / ALBUMIN / ALKALINE PHOSPHATASE / ASPARTATE AMINOTRANSFERASE / BLOOD UREA NITROGEN / CARBON DIOXIDE / CHLORIDE / CHOLESTEROL / CREATINE PHOSPHOKINASE / CREATININE / GLUCOSE / LIPASE / PHOSPHORUS / POTASSIUM / SODIUM / TOTAL BILIRUBIN / TOTAL PROTEIN / URIC ACID: tissue Plasma

In the case of CN1CCN2c3ccccc3Cc3ccccc3C2C1 (configuration not stated) [MIANSERIN], the “ABSOLUTE BASOPHIL” value (72 h, time 3 day) is reported as 0 CELLS/uL, the “ABSOLUTE EOSINOPHIL” value (72 h, time 3 day) is reported as 54.33 CELLS/uL and the “ABSOLUTE LYMPHOCYTE” value (72 h, time 3 day) is reported as 11772.33 CELLS/uL. The “ABSOLUTE MONOCYTE” value (72 h, time 3 day) was 287.33 CELLS/uL, the “ABSOLUTE SEGMENTED NEUTROPHIL” value (72 h, time 3 day) was 1319.33 CELLS/uL and the BASOPHIL (72 h, time 3 day) was 0%. The EOSINOPHIL (72 h, time 3 day) was 0.33%, the HEMATOCRIT (72 h, time 3 day) was 34.47% and the HEMOGLOBIN (72 h, time 3 day) was 13.1 G/DL. For the same compound, the “LEUKOCYTE COUNT” value (72 h, time 3 day) was 13.43 x10E3/uL, the LYMPHOCYTE (72 h, time 3 day) was 88.33% and the “MEAN CORPUSCULAR HEMOGLOBIN” value (72 h, time 3 day) was 23.57 pg. The “MEAN CORPUSCULAR HEMOGLOBIN CONCENTRATION” value (72 h, time 3 day) was 38 G/DL, the “MEAN CORPUSCULAR VOLUME” value (72 h, time 3 day) was 61.97 fL and the MONOCYTE (72 h, time 3 day) was 2%. The NEUTROPHIL (72 h, time 3 day) was 9.33%, the “NUCLEATED RED BLOOD CELLS” value (72 h, time 3 day) was 0 /100WBC and the “PLATELET COUNT” value (72 h, time 3 day) was 1172 x10E3/uL. For the same compound, the “ALANINE AMINOTRANSFERASE” value (72 h, time 3 day) was 74.67 u/L, the ALBUMIN (72 h, time 3 day) was 4.4 G/DL and the “ALKALINE PHOSPHATASE” value (72 h, time 3 day) was 433.33 u/L. For the same compound, the “ASPARTATE AMINOTRANSFERASE” value (72 h, time 3 day) was 111 u/L, the “BLOOD UREA NITROGEN” value (72 h, time 3 day) was 16.33 mg/dL and the “CARBON DIOXIDE” value (72 h, time 3 day) was 20.67 mmol/L. The CHLORIDE (72 h, time 3 day) was 107 MEQ/L, the CHOLESTEROL (72 h, time 3 day) was 81 mg/dL and the “CREATINE PHOSPHOKINASE” value (72 h, time 3 day) was 603 u/L. It also gave a CREATININE (72 h, time 3 day) of 0.28 mg/dL, a GLUCOSE (72 h, time 3 day) of 162.67 mg/dL and an LIPASE (72 h, time 3 day) of 12 u/L. The PHOSPHORUS (72 h, time 3 day) was 12.3 mg/dL, the POTASSIUM (72 h, time 3 day) was 6.52 MEQ/L and the SODIUM (72 h, time 3 day) was 150.33 MEQ/L. The “TOTAL BILIRUBIN” value (72 h, time 3 day) was 0.27 mg/dL, the “TOTAL PROTEIN” value (72 h, time 3 day) was 6.23 G/DL and the “URIC ACID” value (72 h, time 3 day) was 1.93 mg/dL. The “ABSOLUTE BASOPHIL” value (120 h, time 5 day) was 0 CELLS/uL, the “ABSOLUTE EOSINOPHIL” value (120 h, time 5 day) was 0 CELLS/uL and the “ABSOLUTE LYMPHOCYTE” value (120 h, time 5 day) was 13210.67 CELLS/uL. For the same compound, the “ABSOLUTE MONOCYTE” value (120 h, time 5 day) was 71.33 CELLS/uL, the “ABSOLUTE SEGMENTED NEUTROPHIL” value (120 h, time 5 day) was 1118 CELLS/uL and the BASOPHIL (120 h, time 5 day) was 0%. For the same compound, the EOSINOPHIL (120 h, time 5 day) was 0%, the HEMATOCRIT (120 h, time 5 day) was 37.27% and the HEMOGLOBIN (120 h, time 5 day) was 13.67 G/DL. For the same compound, the “LEUKOCYTE COUNT” value (120 h, time 5 day) was 14.4 x10E3/uL, the LYMPHOCYTE (120 h, time 5 day) was 92% and the “MEAN CORPUSCULAR HEMOGLOBIN” value (120 h, time 5 day) was 23.9 pg. The “MEAN CORPUSCULAR HEMOGLOBIN CONCENTRATION” value (120 h, time 5 day) was 36.73 G/DL, the “MEAN CORPUSCULAR VOLUME” value (120 h, time 5 day) was 65.03 fL and the MONOCYTE (120 h, time 5 day) was 0.33%. For the same compound, the NEUTROPHIL (120 h, time 5 day) was 7.67%, the “NUCLEATED RED BLOOD CELLS” value (120 h, time 5 day) was 0 /100WBC and the “PLATELET COUNT” value (120 h, time 5 day) was 1241.33 x10E3/uL. The “ALANINE AMINOTRANSFERASE” value (120 h, time 5 day) was 77.67 u/L, the ALBUMIN (120 h, time 5 day) was 4.3 G/DL and the “ALKALINE PHOSPHATASE” value (120 h, time 5 day) was 439.33 u/L. The “ASPARTATE AMINOTRANSFERASE” value (120 h, time 5 day) was 87.33 u/L, the “BLOOD UREA NITROGEN” value (120 h, time 5 day) was 16.67 mg/dL and the “CARBON DIOXIDE” value (120 h, time 5 day) was 24.67 mmol/L. The CHLORIDE (120 h, time 5 day) was 105.33 MEQ/L, the CHOLESTEROL (120 h, time 5 day) was 62 mg/dL and the “CREATINE PHOSPHOKINASE” value (120 h, time 5 day) was 238.33 u/L. For the same compound, the CREATININE (120 h, time 5 day) was 0.16 mg/dL, the GLUCOSE (120 h, time 5 day) was 176.33 mg/dL and the LIPASE (120 h, time 5 day) was 11 u/L. The PHOSPHORUS (120 h, time 5 day) was 13.77 mg/dL, the POTASSIUM (120 h, time 5 day) was 7.05 MEQ/L and the SODIUM (120 h, time 5 day) was 148.43 MEQ/L. The “TOTAL BILIRUBIN” value (120 h, time 5 day) was 0.23 mg/dL, the “TOTAL PROTEIN” value (120 h, time 5 day) was 6.13 G/DL and the “URIC ACID” value (120 h, time 5 day) was 2.37 mg/dL.
